Test results from patent US20170008888A1 (KYORIN PHARMACEUTICAL CO., LTD., priority 2014, published 2017).
Like-named read-outs stand apart in the source and are kept apart here.

Columns and labels:
Format in all cases: binding
[1] = molecular target: T1, JAK1 (Homo sapiens, UniProt P23458); assay: Probe-based (AX9989) kinase profiling in Jurkat lysate: JAK1; settings: for inhibition at 0.1 µM: screening concentration 0.1 μM
T1 construct: screened for activity against several kinases in Jurkat cells; endogenous in cells; host or cells: Jurkat cell lysate
T1 sequence (P23458 whole entry): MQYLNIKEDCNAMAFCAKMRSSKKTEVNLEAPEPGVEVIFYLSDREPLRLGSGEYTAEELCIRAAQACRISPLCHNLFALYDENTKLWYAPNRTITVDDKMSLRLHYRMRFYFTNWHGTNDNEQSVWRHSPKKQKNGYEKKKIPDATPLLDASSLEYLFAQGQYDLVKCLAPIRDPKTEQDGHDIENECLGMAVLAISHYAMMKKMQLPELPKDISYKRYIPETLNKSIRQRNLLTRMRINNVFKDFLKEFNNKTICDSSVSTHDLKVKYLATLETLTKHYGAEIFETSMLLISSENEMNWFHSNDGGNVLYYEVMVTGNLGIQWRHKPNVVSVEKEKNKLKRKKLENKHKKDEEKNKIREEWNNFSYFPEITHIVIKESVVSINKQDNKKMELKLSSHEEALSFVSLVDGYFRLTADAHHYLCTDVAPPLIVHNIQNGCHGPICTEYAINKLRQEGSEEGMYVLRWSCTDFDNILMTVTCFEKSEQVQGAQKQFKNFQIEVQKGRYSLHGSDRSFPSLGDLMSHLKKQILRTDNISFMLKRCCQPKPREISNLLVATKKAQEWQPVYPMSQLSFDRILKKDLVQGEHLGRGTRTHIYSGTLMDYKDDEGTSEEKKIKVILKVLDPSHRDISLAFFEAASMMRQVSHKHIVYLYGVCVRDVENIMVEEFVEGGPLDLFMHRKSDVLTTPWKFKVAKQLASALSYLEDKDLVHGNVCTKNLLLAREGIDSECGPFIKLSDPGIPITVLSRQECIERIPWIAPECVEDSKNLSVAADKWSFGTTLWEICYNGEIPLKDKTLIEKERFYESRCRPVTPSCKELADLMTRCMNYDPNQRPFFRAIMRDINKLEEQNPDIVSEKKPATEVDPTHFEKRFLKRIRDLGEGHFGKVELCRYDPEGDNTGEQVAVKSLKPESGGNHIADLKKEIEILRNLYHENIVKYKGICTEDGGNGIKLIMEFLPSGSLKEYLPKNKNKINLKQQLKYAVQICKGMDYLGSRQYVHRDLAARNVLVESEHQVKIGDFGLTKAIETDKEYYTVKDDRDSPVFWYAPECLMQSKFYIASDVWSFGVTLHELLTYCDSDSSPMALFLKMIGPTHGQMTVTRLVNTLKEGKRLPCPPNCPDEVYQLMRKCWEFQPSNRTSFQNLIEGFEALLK
In short: (§1)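 Jurkat lysate (50 mM HEPES pH 7.5, 150 mM NaCl, 0.1% Triton X-100, 20 mM MnCl2) pre-incubated 15 min with compound at room temperature, then labeled with 5 μM acyl phosphate ATP probe AX9989. Tryptic probe-labeled peptides streptavidin-captured and quantified by LC/MS; percent inhibition from decreased fragment intensity versus untreated.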

[2] = molecular target: T2, TAO2 (Homo sapiens, UniProt Q9UL54); assay: Probe-based (AX9989) kinase profiling in Jurkat lysate: TAO2; settings: for inhibition at 0.1 µM: screening concentration 0.1 μM
T2 construct: screened for activity against several kinases in Jurkat cells; endogenous in cells; host or cells: Jurkat cell lysate
T2 sequence (Q9UL54 1-1235): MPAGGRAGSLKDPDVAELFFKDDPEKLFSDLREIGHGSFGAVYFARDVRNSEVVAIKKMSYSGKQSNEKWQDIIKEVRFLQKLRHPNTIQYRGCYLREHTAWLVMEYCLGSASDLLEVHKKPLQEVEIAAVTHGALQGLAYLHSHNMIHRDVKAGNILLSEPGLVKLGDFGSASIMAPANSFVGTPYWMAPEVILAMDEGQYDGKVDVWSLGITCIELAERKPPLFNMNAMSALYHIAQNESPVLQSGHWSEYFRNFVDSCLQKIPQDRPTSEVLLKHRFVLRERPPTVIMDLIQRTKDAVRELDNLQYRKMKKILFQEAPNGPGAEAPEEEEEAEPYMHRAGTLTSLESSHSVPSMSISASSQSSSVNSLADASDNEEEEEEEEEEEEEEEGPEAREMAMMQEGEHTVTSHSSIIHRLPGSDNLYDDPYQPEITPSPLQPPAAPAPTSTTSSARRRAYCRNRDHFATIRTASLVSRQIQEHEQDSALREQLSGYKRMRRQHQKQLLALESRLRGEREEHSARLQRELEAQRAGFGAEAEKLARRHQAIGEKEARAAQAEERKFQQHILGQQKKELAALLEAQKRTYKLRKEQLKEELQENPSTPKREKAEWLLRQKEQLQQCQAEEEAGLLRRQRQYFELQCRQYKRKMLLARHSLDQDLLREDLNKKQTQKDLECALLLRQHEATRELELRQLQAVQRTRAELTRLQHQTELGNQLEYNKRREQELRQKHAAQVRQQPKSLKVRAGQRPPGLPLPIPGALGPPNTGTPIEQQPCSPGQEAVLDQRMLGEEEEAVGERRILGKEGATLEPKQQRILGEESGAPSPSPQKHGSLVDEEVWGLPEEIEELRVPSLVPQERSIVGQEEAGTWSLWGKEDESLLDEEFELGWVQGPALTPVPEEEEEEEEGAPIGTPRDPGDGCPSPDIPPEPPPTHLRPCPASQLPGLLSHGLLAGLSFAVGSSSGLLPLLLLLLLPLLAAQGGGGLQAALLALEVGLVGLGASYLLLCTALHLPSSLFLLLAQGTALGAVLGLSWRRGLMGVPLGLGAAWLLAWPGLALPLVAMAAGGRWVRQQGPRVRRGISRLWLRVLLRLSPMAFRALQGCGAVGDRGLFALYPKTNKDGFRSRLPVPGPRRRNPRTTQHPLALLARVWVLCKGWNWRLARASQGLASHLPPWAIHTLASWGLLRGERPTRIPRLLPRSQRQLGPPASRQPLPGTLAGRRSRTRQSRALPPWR
In short: as §1

[3] = molecular target: T3, AurA (Homo sapiens, UniProt O14965); assay: Probe-based (AX9989) kinase profiling in Jurkat lysate: AurA; settings: for inhibition at 0.1 µM: screening concentration 0.1 μM
T3 construct: screened for activity against several kinases in Jurkat cells; endogenous in cells; host or cells: Jurkat cell lysate
T3 sequence (O14965 1-403): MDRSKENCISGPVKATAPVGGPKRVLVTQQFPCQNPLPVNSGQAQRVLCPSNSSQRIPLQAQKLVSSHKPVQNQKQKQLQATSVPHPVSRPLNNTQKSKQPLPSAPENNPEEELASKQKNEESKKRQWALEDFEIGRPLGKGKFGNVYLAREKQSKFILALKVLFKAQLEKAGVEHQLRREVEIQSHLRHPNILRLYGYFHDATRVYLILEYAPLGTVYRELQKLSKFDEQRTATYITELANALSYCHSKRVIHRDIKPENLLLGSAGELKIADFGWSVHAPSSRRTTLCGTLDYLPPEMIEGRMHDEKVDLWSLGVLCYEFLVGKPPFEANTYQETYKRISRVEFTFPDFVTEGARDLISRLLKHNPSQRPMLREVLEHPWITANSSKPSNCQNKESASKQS
In short: as §1

[4] = molecular target: T4, ERK5 (Homo sapiens, UniProt Q13164); assay: Probe-based (AX9989 acyl phosphate ATP probe) kinase profiling in Jurkat lysate: ERK5; settings: for IC50: Jurkat lysate; for inhibition at 0.1 µM: screening concentration 0.1 μM
T4 construct: screened for activity against several kinases in Jurkat cells; endogenous in cells; host or cells: Jurkat cell lysate
T4 sequence (Q13164 whole entry): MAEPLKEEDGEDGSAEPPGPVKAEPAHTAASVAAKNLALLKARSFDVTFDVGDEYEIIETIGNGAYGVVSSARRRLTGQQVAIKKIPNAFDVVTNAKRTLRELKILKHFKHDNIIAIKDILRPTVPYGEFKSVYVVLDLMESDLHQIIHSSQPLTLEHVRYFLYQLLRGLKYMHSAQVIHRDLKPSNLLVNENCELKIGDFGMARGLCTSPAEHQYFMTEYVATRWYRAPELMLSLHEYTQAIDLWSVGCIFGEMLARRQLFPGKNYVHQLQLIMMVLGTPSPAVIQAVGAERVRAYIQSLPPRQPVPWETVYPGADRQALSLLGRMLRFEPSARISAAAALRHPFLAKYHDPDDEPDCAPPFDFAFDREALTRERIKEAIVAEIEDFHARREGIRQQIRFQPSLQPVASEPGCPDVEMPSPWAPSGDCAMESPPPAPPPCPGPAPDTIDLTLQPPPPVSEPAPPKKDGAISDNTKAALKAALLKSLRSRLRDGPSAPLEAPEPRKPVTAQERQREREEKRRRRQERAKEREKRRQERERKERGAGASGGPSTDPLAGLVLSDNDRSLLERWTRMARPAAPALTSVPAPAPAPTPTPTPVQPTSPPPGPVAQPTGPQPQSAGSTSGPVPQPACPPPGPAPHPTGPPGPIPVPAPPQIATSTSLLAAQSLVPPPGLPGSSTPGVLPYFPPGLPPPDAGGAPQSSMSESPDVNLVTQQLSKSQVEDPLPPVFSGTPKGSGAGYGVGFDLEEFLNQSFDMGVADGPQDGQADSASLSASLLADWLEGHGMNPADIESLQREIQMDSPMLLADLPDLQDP
In short: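 ERK5 IC50 values came from percent inhibition at the screening concentration, measured as loss of LC/MS signal of probe-labelled active-site peptides. Compound was added for 15 min at room temperature to Jurkat lysate (5 mg/ml, 20 mM MnCl2) before labelling with AX9989 ATP acyl phosphate probe at 5 μM.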

[5] = test system: ABL or ARG; assay: Probe-based (AX9989) kinase profiling in Jurkat lysate: ABL or ARG
In short: as §1

[6] = test system: AMPKa1 or AMPKa2; assay: Probe-based (AX9989) kinase profiling in Jurkat lysate: AMPKa1 or AMPKa2
In short: as §1

[7] = read-out: Kinase inhibition % at indicated screening concentration: JAK1
[8] = read-out: Kinase inhibition % at indicated screening concentration: TAO2
[9] = read-out: Kinase inhibition % at indicated screening concentration: AurA
[10] = calculated from percent inhibition of AX9989 labeling and the screening concentration
[11] = read-out: Kinase inhibition % at indicated screening concentration: ERK5
[12] = screening concentration 1 μM, read-out: JAK1 Inhibition % at indicated screening concentration
[13] = screening concentration 1 μM, read-out: TAO2 Inhibition % at indicated screening concentration
[14] = screening concentration 1 μM, read-out: AurA Inhibition % at indicated screening concentration
[15] = calculated from percent inhibition and screening concentration, AX9989 probe
[16] = screening concentration 1 μM, read-out: ERK5 Inhibition % at indicated screening concentration
[17] = screening concentration 1.0 μM, read-out: Kinase inhibition % at indicated screening concentration: JAK1
[18] = screening concentration 1.0 μM, read-out: Kinase inhibition % at indicated screening concentration: TAO2
[19] = screening concentration 1.0 μM, read-out: Kinase inhibition % at indicated screening concentration: AurA
[20] = screening concentration 1.0 μM, read-out: Kinase inhibition % at indicated screening concentration: ERK5

Row | inhibition at 0.1 µM [1, 7] [%] | inhibition at 0.1 µM [2, 8] [%] | inhibition at 0.1 µM [3, 9] [%] | IC50 [4, 10] [µM] | inhibition at 0.1 µM [4, 11] [%] | Kinase inhibition % at indicated screening concentration: ABL or ARG ([5]; screening concentration 0.1 μM) | Kinase inhibition % at indicated screening concentration: AMPKa1 or AMPKa2 ([6]; screening concentration 0.1 μM) | IC50 [4, 15] [µM] | inhibition at 1 µM [1, 17] [%] | inhibition at 1 µM [2, 18] [%] | inhibition at 1 µM [3, 19] [%] | inhibition at 1 µM [4, 20] [%] | Kinase inhibition % at indicated screening concentration: ABL or ARG ([5]; screening concentration 1.0 μM) | Kinase inhibition % at indicated screening concentration: AMPKa1 or AMPKa2 ([6]; screening concentration 1.0 μM) | further results | SMILES
1 | ≤ 35 | ≤ 35 | ≤ 35 | ≤ 0.05 | 75 to 90 | E (E is ≦35%) | E (E is ≦35%) |  |  |  |  |  |  |  |  | CCOc1cc(C(=O)N2CCN(C(C)(C)C)CC2)ccc1Nc1cc2c(cn1)N(C)C(=O)c1ccccc1N2C [Compound 94]
2 |  |  |  |  |  |  |  | ≤ 0.05 |  |  |  |  |  |  | inhibition at 1 µM [1, 12]: ≤ 35%; inhibition at 1 µM [2, 13]: ≤ 35%; inhibition at 1 µM [3, 14]: ≤ 35%; inhibition at 1 µM [4, 16]: > 90%; ABL or ARG Inhibition % at indicated screening concentration ([5]; screening concentration 1 μM): E (E is ≦35%); AMPKa1 or AMPKa2 Inhibition % at indicated screening concentration ([6]; screening concentration 1 μM): E (E is ≦35%) | CCOc1cc(C(=O)N2CCN(C(C)=O)CC2)ccc1Nc1cc2c(cn1)N(C)C(=O)c1ccccc1N2C [Compound T18]
3 |  |  |  |  |  |  |  | ≤ 0.05 |  |  |  |  |  |  | inhibition at 1 µM [1, 12]: ≤ 35%; inhibition at 1 µM [2, 13]: ≤ 35%; inhibition at 1 µM [3, 14]: ≤ 35%; inhibition at 1 µM [4, 16]: > 90%; ABL or ARG Inhibition % at indicated screening concentration ([5]; screening concentration 1 μM): E (E is ≦35%); AMPKa1 or AMPKa2 Inhibition % at indicated screening concentration ([6]; screening concentration 1 μM): E (E is ≦35%) | CCOc1cc(C(=O)N2CCC(NC(C)C)C2)ccc1Nc1cc2c(cn1)N(C)C(=O)c1ccccc1N2C (stereo not shown) [Compound T4]
4 | ≤ 35 | ≤ 35 | ≤ 35 | ≤ 0.05 | > 90 | E (E is ≦35%) | E (E is ≦35%) |  |  |  |  |  |  |  |  | CCOc1cc(C(=O)N2CCC(N3CCN(C)CC3)CC2)ccc1Nc1cc2c(cn1)N(C)C(=O)c1occc1N2C [Compound 65]
5 |  |  |  | ≤ 0.05 |  |  |  |  | ≤ 35 | ≤ 35 | ≤ 35 | > 90 | E (E is ≦35%) | E (E is ≦35%) |  | CCOc1cc(C(=O)N2CC[C@@H](N(C)C)C2)ccc1Nc1cc2c(cn1)N(C)C(=O)c1ccccc1N2C [Compound 115]
6 |  |  |  | ≤ 0.05 |  |  |  |  | ≤ 35 | ≤ 35 | ≤ 35 | > 90 | E (E is ≦35%) | E (E is ≦35%) |  | CCOc1cc(C(=O)N2CCNCC2)ccc1Nc1cc2c(cn1)N(C)C(=O)c1ccccc1N2C [Compound 62]
7 |  |  |  | ≤ 0.05 |  |  |  |  | ≤ 35 | 50 to 75 | ≤ 35 | > 90 | E (E is ≦35%) | E (E is ≦35%) |  | Cc1cc(CN2CCCC2)ccc1Nc1cc2c(cn1)N(C)C(=O)c1ccccc1N2C [Compound 106, 5,11-dimethyl-3-(2-methyl-4-(pyrrolidin-1-ylmethyl)phenylamino)-5H-benzo[e]pyrido[3,4-b][1,4]diazepin-10(11H)-one]
8 |  |  |  | 0.05 to 0.1 |  |  |  |  | ≤ 35 | ≤ 35 | ≤ 35 | > 90 | E (E is ≦35%) | E (E is ≦35%) |  | CCOc1cc(C(=O)N2CCC(O)CC2)ccc1Nc1cc2c(cn1)N(C)C(=O)c1ccccc1N2C [Compound 52]
9 |  |  |  |  |  |  |  | > 0.5 |  |  |  |  |  |  | inhibition at 10 µM ([1]; screening concentration 10 μM, read-out: JAK1 Inhibition % at indicated screening concentration): ≤ 35%; inhibition at 10 µM ([2]; screening concentration 10 μM, read-out: TAO2 Inhibition % at indicated screening concentration): 50 to 75%; inhibition at 10 µM ([3]; screening concentration 10 μM, read-out: AurA Inhibition % at indicated screening concentration): ≤ 35%; inhibition at 10 µM ([4]; screening concentration 10 μM, read-out: ERK5 Inhibition % at indicated screening concentration): > 90%; ABL or ARG Inhibition % at indicated screening concentration ([5]; screening concentration 10 μM): E (E is ≦35%); AMPKa1 or AMPKa2 Inhibition % at indicated screening concentration ([6]; screening concentration 10 μM): D (D is >35% to ≦50%) | COc1cccc2c1Oc1cc(N[C@H]3CC[C@H](O)CC3)ncc1N(C)C2=O [Compound T95]
10 | ≤ 35 | ≤ 35 | ≤ 35 | ≤ 0.05 | > 90 | E (E is ≦35%) | E (E is ≦35%) |  |  |  |  |  |  |  |  | CCOc1cc(C(=O)N2CC(N3CCCCC3)C2)ccc1Nc1cc2c(cn1)N(C)C(=O)c1ccccc1N2C [Compound 114]
